Patent publication US12479847B2 (DANA-FARBER CANCER INSTITUTE, INC., priority 2019, dated 2025)

Experiments:
Assay in all cases: KINOMEscan (ScanMAX) kinase profiling
Type in all cases: binding
[1] = biological target: T1, panel of 468 kinases (Homo sapiens, UniProt P41240); conditions: CSK; 1 μM; read-out: % control
T1 construct: purchased KINOMEscan (ScanMAX) service

[2] = biological target: T2, panel of 468 kinases (Homo sapiens, UniProt Q8IWQ3); conditions: BRSK2; 1 μM; read-out: % control
T2 construct: purchased KINOMEscan (ScanMAX) service
T2 sequence (Q8IWQ3 1-736): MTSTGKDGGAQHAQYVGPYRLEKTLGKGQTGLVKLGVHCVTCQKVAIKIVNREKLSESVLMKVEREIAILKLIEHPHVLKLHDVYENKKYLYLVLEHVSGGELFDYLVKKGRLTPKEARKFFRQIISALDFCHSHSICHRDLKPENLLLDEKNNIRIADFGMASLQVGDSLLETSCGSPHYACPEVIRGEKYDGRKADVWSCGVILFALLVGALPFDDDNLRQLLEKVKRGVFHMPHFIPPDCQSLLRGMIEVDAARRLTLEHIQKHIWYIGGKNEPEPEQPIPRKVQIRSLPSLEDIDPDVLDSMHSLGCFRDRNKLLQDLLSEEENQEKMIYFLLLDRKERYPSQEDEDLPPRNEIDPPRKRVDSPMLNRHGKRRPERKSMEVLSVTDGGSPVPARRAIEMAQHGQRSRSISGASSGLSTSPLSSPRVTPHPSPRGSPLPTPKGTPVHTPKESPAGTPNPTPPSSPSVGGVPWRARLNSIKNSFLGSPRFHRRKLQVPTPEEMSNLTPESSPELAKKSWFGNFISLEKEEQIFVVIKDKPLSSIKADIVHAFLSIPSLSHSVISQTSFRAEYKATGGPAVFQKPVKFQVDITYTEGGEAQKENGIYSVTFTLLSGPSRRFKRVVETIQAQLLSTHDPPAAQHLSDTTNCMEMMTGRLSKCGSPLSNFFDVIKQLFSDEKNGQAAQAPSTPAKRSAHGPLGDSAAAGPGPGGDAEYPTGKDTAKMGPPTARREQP

[3] = biological target: T3, panel of 468 kinases (Homo sapiens, UniProt P53355); conditions: DAPK1; 1 μM; read-out: % control
T3 construct: purchased KINOMEscan (ScanMAX) service
T3 sequence (P53355 whole entry): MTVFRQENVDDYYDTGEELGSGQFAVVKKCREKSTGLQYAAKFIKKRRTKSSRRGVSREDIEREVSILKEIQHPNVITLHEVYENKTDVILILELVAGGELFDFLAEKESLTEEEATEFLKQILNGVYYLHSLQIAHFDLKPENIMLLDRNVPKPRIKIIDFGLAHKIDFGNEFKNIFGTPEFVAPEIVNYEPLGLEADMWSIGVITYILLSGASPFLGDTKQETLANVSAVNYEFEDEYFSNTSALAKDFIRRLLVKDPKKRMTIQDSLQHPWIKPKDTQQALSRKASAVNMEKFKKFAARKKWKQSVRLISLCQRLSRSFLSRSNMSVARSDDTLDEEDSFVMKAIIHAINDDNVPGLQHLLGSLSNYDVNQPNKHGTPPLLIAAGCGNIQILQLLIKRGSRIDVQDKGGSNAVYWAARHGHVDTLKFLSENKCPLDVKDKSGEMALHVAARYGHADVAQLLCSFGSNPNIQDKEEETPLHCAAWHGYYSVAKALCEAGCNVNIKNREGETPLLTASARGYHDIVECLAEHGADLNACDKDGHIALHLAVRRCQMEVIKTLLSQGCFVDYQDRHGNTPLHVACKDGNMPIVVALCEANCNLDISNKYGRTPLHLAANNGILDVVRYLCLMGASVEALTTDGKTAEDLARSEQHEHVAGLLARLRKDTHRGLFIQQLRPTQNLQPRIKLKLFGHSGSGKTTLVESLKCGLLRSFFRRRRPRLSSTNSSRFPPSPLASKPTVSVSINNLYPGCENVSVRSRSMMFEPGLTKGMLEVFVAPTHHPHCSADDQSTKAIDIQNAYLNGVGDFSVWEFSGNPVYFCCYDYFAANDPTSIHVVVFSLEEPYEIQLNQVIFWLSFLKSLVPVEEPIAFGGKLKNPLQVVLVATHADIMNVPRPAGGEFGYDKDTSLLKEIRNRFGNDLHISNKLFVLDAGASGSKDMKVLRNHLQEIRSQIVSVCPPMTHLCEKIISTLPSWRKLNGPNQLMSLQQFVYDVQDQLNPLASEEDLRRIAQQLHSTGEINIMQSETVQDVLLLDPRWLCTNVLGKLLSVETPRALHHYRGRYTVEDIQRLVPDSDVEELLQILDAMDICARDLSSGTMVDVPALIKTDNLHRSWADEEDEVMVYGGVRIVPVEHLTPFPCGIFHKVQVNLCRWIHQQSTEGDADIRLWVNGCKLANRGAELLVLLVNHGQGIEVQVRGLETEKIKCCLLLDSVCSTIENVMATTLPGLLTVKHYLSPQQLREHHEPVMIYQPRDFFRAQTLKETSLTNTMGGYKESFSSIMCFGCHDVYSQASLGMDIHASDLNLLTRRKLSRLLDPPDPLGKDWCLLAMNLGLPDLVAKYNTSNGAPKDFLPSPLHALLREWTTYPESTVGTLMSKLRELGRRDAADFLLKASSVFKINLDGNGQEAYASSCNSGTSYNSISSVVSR

[4] = biological target: T4, panel of 468 kinases (Homo sapiens, UniProt P29323); conditions: EPHB2; 1 μM; read-out: % control
T4 construct: purchased KINOMEscan (ScanMAX) service
T4 sequence (P29323 19-1055): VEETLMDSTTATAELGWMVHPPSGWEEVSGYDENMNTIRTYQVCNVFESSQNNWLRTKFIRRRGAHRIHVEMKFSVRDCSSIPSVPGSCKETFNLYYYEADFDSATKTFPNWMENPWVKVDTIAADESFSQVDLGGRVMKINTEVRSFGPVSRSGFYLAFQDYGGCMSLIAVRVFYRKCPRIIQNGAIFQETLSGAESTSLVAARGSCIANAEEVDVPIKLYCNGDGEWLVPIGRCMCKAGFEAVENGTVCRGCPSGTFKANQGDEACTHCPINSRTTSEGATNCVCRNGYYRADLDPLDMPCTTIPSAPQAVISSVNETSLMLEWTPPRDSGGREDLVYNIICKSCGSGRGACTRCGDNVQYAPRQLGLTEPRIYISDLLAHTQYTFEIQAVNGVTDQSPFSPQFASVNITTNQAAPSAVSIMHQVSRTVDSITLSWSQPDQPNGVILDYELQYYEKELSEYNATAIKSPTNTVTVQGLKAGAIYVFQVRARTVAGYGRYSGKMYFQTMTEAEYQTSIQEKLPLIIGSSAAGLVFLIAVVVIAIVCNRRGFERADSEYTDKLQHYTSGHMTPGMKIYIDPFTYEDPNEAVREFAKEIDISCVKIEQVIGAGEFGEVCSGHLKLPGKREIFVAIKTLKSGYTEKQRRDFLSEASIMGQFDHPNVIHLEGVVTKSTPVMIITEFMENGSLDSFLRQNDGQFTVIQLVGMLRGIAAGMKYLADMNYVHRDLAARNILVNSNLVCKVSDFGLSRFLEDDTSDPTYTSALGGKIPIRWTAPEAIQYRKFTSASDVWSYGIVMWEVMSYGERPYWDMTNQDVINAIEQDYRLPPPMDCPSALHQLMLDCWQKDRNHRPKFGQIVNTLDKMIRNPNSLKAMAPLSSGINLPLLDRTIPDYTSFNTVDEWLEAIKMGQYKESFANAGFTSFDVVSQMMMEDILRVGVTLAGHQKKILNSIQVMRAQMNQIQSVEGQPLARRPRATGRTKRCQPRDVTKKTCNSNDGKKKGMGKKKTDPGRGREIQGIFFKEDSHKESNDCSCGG

[5] = biological target: T5, panel of 468 kinases (Homo sapiens, UniProt P19784); conditions: CSNK2A2; 1 μM; read-out: % control
T5 construct: purchased KINOMEscan (ScanMAX) service
T5 sequence (P19784 whole entry): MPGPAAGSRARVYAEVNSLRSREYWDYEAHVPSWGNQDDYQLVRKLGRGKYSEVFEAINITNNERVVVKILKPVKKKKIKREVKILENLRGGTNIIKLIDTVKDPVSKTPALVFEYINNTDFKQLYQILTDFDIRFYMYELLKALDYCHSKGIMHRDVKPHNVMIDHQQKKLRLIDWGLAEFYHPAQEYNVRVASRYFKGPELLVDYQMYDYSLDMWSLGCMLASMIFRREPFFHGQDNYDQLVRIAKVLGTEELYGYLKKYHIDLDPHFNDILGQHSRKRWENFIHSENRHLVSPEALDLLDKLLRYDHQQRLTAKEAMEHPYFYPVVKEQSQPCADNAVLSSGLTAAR

[6] = biological target: T6, panel of 468 kinases (Homo sapiens, UniProt P53778); conditions: p38-gamma; 1 μM; read-out: % control
T6 construct: purchased KINOMEscan (ScanMAX) service
T6 sequence (P53778 1-367): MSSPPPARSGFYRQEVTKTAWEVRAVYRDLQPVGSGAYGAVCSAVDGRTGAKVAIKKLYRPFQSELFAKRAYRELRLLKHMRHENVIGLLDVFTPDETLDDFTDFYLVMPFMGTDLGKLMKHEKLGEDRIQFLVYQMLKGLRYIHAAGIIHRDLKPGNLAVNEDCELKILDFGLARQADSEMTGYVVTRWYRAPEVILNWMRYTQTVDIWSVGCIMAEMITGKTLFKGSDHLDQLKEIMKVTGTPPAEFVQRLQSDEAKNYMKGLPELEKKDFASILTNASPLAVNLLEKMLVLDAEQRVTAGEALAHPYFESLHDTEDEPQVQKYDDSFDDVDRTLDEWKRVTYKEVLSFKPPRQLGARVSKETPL

[7] = biological target: T7, panel of 468 kinases (Homo sapiens, UniProt Q9NYY3); conditions: PLK2; 1 μM; read-out: % control
T7 construct: purchased KINOMEscan (ScanMAX) service
T7 sequence (Q9NYY3 whole entry): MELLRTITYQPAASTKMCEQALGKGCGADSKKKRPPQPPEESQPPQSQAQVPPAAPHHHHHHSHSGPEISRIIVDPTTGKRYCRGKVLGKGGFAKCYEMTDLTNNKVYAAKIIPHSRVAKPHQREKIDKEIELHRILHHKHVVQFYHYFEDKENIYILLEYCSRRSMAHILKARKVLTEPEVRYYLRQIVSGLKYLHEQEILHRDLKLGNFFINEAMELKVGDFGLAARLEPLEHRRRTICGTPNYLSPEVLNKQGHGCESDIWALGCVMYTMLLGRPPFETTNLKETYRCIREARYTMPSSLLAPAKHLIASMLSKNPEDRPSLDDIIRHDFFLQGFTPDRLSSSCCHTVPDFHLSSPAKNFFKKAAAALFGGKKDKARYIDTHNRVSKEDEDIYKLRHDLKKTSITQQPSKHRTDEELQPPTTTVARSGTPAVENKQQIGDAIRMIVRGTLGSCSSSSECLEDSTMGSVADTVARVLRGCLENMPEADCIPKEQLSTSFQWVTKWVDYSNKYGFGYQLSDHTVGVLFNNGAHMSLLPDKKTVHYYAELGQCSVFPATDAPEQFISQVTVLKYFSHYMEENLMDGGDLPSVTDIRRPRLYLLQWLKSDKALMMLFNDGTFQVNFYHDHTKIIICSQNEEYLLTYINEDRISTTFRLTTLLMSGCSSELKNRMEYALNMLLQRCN

[8] = biological target: T8, panel of 468 kinases (Homo sapiens, UniProt Q9NQU5); conditions: PAK6; 1 μM; read-out: % control
T8 construct: purchased KINOMEscan (ScanMAX) service
T8 sequence (Q9NQU5 whole entry): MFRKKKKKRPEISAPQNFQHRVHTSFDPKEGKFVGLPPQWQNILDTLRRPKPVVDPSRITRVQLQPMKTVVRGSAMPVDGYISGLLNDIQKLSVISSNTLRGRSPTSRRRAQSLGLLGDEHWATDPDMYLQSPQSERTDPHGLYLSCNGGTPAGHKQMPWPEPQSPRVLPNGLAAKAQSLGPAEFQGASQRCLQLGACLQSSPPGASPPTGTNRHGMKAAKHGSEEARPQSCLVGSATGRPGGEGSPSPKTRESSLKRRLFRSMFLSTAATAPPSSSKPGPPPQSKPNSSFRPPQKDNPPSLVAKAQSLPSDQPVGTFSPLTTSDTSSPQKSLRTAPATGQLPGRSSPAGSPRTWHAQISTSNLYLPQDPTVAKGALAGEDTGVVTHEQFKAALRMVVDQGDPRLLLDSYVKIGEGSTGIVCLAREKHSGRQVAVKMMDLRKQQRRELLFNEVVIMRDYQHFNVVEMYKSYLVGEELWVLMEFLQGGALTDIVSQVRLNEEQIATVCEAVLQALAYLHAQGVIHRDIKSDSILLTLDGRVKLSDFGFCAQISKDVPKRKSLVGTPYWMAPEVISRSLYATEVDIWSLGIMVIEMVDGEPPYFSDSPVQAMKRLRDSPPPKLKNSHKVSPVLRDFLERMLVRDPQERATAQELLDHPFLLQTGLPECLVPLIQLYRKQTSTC

[9] = biological target: T9, panel of 468 kinases (Homo sapiens, UniProt P14616); conditions: INSRR; 1 μM; read-out: % control
T9 construct: purchased KINOMEscan (ScanMAX) service
T9 sequence (P14616 27-1297): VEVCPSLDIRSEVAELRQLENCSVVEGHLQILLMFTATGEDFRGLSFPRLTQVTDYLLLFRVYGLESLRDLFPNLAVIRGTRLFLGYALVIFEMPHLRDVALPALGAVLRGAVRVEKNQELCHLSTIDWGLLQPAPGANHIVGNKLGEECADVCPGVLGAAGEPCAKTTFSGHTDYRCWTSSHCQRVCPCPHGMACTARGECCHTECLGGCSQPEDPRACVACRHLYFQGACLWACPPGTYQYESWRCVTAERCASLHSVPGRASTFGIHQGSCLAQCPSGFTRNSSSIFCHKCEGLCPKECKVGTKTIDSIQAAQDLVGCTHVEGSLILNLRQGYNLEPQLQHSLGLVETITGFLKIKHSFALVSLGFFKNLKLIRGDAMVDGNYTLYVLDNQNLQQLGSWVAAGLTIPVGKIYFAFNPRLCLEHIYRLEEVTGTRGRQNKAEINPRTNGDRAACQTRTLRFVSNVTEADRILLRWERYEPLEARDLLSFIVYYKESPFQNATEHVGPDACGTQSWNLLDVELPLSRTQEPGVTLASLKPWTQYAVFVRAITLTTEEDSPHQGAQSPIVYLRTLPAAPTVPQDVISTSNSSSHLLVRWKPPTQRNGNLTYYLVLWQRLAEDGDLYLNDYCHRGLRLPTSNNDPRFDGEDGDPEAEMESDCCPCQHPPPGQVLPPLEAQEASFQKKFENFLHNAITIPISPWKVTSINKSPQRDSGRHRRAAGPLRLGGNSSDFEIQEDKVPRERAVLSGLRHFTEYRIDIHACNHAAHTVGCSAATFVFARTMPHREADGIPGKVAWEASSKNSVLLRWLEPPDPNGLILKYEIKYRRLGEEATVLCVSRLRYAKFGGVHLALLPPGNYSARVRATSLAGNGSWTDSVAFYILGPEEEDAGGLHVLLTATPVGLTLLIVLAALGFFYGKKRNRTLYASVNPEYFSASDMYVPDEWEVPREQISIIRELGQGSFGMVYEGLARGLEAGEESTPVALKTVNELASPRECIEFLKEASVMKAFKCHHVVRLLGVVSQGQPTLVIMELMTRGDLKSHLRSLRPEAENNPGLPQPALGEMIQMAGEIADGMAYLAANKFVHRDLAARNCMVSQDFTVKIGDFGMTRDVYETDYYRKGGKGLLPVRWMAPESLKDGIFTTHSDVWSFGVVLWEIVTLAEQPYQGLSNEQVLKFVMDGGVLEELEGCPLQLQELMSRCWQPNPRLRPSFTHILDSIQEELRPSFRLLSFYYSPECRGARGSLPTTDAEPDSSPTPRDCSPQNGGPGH

T1 sequence (P41240 whole entry): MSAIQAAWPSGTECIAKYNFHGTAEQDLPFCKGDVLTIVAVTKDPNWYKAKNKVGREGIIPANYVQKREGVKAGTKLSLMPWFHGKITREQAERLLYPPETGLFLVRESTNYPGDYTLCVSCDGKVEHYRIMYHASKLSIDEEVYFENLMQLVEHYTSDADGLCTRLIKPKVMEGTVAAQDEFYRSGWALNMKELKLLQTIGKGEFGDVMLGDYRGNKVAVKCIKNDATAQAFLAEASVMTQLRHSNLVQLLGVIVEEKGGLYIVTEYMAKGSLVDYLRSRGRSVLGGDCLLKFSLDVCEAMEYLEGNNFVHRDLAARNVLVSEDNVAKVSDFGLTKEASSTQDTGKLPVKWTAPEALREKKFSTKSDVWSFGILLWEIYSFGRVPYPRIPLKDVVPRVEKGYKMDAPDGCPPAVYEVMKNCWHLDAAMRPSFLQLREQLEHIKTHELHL

| SMILES | remaining binding at 1 µM [1] [%] | remaining binding at 1 µM [2] [%] | remaining binding at 1 µM [3] [%] | remaining binding at 1 µM [4] [%] | remaining binding at 1 µM [5] [%] | remaining binding at 1 µM [6] [%] | remaining binding at 1 µM [7] [%] | remaining binding at 1 µM [8] [%] | remaining binding at 1 µM [9] [%] |
| --- | --- | --- | --- | --- | --- | --- | --- | --- | --- |
| CNc1nc(Nc2ccc(S(=O)(=O)N3CCC(N4CCOCC4)CC3)cc2OC)nc2[nH]cc(Cl)c12 [Compound 12, 5-chloro-N2-(2-methoxy-4-((4-morpholinopiperidin-1-yl)sulfonyl)phenyl)-N4-methyl-7H-pyrrolo[2,3-d]pyrimidine-2,4-diamine] | 100 | 87 | 43 | 100 | 97 | 100 | 80 | 100 | 85 |
| CNc1nc(Nc2ccc(P3(=O)CCN(C4CCOCC4)CC3)cc2OC)nc2[nH]cc(Cl)c12 [Compound 77, 4-(4-((5-chloro-4-(methylamino)-7H-pyrrolo[2,3-d]pyrimidin-2-yl)amino)-3-methoxyphenyl)-1-(tetrahydro-2H-pyran-4-yl)-1,4-azaphosphinane 4-oxide] | 100 | 96 | 8.3 | 100 | 80 | 98 | 75 | 95 | 62 |
| CNc1nc(Nc2ccc(C(=O)N3CCC(N4CCOCC4)CC3)c3c2OCO3)nc2[nH]cc(Cl)c12 [Compound 75, (7-((5-chloro-4-(methylamino)-7H-pyrrolo[2,3-d]pyrimidin-2-yl)amino)benzo[d][1,3]dioxol-4-yl)(4-morpholinopiperidin-1-yl)methanone] | 100 | 83 | 14 | 100 | 49 | 91 | 82 | 100 | 88 |
